According to patent publication US9062088B2, “CDK-inhibiting pyrrolopyrimidine carboxamide derivative or pharmaceutically acceptable salt thereof, and pharmaceutical composition containing the same as active ingredient for preventing or treating hepatocellular carcinoma” (SNU R&DB Foundation, priority 2010, dated 2015):

Columns and labels:
[1] = system: SNU-354 cells; test: Western blotting of PARP cleavage; assay type: cell-based, human; settings: FIG. 17
Method: (§1) After treating the compound of Example 2 to SNU-354 cells, cell pellet was lysed with lysis buffer (0.5% triton X-100, 20 mM Tris-HCl (pH 7.5), 2 mM magnesium chloride, 1 mM DTT, 1 mM EGTA, 50 mM β-glycerophosphate, 25 mM sodium fluoride, 1 mM Na3VO4, 2 μg/mL leupeptin, 2 μg/mL pepstatin A, 100 μg/mL phenylmethylsulfonyl fluoride, and 1 μg/mL antipain) at 4° C. for 1 hour, followed by quantification of protein. A proper amount of protein was electrophoresed on SDS-PAGE gel and then transferred onto polyvinylidene difluoride membrane (Millipore Co., Bedford, Mass.). The membrane was reacted in inhibiting solution (PBS, 5% skim milk, 0.1% tween-20) at room temperature for 1˜2 hours. The membrane was reacted with the primary antibody (goat anti-phospho-Rb, rabbit anti-nucleolin) diluted in the inhibiting solution (1:1000). Then, the membrane was washed with PBST, followed by reaction with the proper secondary antibody (horseradish peroxidase (HRP) conjugated) at room temperature for 1 hour.
Experiment was performed by the same manner as described in step 2 of Experimental Example 2 except that rabbit anti-PARP was used as the primary antibody and the results are shown in FIG. 17.

[2] = system: caspase-3 activity in SNU-354 cells; test: Measurement of caspase-3 activity (Experimental Example 1-6-2); assay type: cell-based, human
Method: SNU-354 cells treated with the compounds of Examples 1 and 2 were lysed with lysis buffer (0.5% triton X-100, 20 mM Tris-HCl (pH 7.5), 2 mM magnesium chloride, 1 mM DTT, 1 mM EGTA, 50 mM β-glycerophosphate, 25 mM sodium fluoride, 1 mM Na3VO4, 2 μg/mL leupeptin, 2 μg/mL pepstatin A, 100 μg/mL phenylmethylsulfonyl fluoride, 1 μg/mL antipain). The protease analysis buffer necessary for the reaction (20 mM HEPES (pH 7.5), 10% glycerol, 2 mM DTT) was mixed with 20 μM Ac-DEVD-AMC (BD Biosciences, CA, USA) and cell lysates, followed by reaction at 37° C. for 1 hour. Upon completion of the reaction, caspase-3 activity was measured at 380 nm of excitation and 460 nm of emission with spectrofluorometer (TECAN, Switzerland) and the results are shown in FIG. 18 and Table 8.

[3] = target: T1, Cdk7/cyclin H/MAT1 (Homo sapiens, UniProt P50613); test: In vitro kinase assay of Cdk7, RNA Pol II-CTD-GST substrate; assay type: biochemical; settings: 0 nM = 100
T1 construct: purchased Upstate
T1 sequence (P50613 whole entry): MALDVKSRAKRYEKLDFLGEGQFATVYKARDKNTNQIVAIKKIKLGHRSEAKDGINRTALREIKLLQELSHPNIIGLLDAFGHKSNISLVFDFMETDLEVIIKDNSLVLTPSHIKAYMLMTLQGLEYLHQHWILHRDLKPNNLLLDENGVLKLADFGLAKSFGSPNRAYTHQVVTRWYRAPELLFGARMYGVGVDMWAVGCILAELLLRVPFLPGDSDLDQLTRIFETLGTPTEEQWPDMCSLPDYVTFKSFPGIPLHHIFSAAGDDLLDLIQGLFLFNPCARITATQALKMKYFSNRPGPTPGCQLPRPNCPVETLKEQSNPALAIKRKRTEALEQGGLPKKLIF
T1 sequence (P51946 whole entry partner): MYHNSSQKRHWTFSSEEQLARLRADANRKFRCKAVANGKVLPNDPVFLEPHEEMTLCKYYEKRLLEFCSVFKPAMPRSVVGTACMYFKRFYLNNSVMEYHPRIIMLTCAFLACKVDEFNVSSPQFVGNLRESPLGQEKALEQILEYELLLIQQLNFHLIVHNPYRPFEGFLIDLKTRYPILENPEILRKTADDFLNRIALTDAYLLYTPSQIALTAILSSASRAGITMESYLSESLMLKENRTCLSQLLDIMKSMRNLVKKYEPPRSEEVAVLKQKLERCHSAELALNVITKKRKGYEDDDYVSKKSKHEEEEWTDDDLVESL
T1 sequence (P51948 whole entry partner): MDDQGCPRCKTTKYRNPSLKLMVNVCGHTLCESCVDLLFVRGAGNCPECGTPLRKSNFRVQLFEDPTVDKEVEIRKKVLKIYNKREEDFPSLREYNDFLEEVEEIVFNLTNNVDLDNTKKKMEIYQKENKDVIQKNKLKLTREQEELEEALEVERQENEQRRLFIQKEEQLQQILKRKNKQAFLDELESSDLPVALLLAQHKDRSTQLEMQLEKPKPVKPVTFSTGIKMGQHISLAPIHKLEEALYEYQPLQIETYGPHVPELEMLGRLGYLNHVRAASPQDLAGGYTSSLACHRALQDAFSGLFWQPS
Method: To kinase assay buffer were added RNA Pol II-CTD-GST protein (Jena Bioscience, Germany) as a substrate, Cdk9/cyclin T1 or Cdk7/cyclin H/MAT1 recombinant protein (Upstate) as an enzyme, 2.5 μCi [γ-32P]ATP, and 100 μM MgAc/ATP. The total reaction volume was adjusted to 50 μl. Kinase assay reaction was induced at 30° C. for 20 minutes. Upon completion of the reaction, electrophoresis was performed on 8% SDS-polyacrylamide gel. The activities of Cdk7 and Cdk9 over the concentrations of the compounds of Example 1 and Example 2 were confirmed by autoradiography and the results are shown in FIG. 5˜FIG. 8 and Table 3.
The intensity of bands was analyzed by densitometry (GS-800, Bio-Rad).

[4] = system: Cdk9; test: Western blotting of Cdk9 activity (phospho RNA Pol II Ser 2); assay type: cell-based, human; settings: 0 nM = 100
Method: as §1
Experiment was performed by the same manner as described in step 2 of Experimental Example 1 except that rabbit anti-phospho RNA Pol II (Ser 5) and rabbit anti-phospho RNA Pol II (Ser 2) (from Bethyl, TX, USA) were used as primary antibodies. The results are shown FIG. 9˜FIG. 12, and Table 4 and Table 5.

[5] = system: SNU-354 cells; test: Flow cytometry, sub G1 ratio change (Experimental Example 3); assay type: cell-based, human; settings: 10 μM, 24 hours, vehicle = 1.0
Method: SNU-354 cells were seeded in a 90 mm dish, to which vehicle and the compounds of Examples 2˜6 were treated at the concentration of 10 μM each for 24 hours. The cells were collected and washed with cold PBS, followed by reaction in 500 μl of cold 70% ethanol at 4° C. for overnight to fix the cells. The cells were washed with 500 μl of PBS three times, followed by reaction with 500 μl of PBS containing 50 μg/mL propidium iodide (P1) and 50 μl of 1 mg/mL RNAse A at room temperature for 30 minutes in the darkness. Fluorescence of the P1 stained cell was measured by using FACS caliber flow cytometer and cell quest program (Becton Dickinson Immunocytometry Systems, CA, USA). Sub G1 ratio changes of SNU-354 cells induced by the compounds were measured by FACS analysis.

[6] = system: Mcl-1, survivin, XIAP; test: Western blotting of Mcl-1, survivin, XIAP proteins in SNU-354 cells; assay type: cell-based, human; settings: FIG. 13
Method: as §1
Experiment was performed by the same manner as described in step 2 of Experimental Example 1 except that rabbit anti-Mcl-1 (from Santa Cruz Biochemicals, CA, USA), rabbit anti-survivin, rabbit anti-XIAP (from Cell Signaling, MA, USA), and rabbit anti-Actin (from Sigma, USA) were used as primary antibodies.

[7] = system: normal liver tissues; test: TUNEL assay and caspase-3 immunohistochemistry of normal liver tissues; assay type: in vivo, nude mice; settings: treated mice; FIG. 23-B
Method: (§2) All the xenografted tumors and liver tissues extracted above were fixed in 36% formaldehyde solution (Junsei Chemical Co., Ltd, Tokyo, JAPAN), followed by paraffin embedding. The embedded tissues were cut into 5 μm sections. H&E staining and TUNEL assay were performed for examining apoptosis with those sections. The expression of cleaved caspase-3 in the tissue section was measured by using cleaved caspase-3 monoclonal antibody (Cell Signaling, MA, USA). ABC peroxidase (Dako Cytomation California, Inc., CA, USA) labeling was performed for immunological sensitization and the results are shown in FIG. 23. As shown in FIG. 23-A, TUNEL positive spots and caspase-3 positive spots were observed more in the group treated with the compound of Example 2 than in the control. […] As shown in FIG. 23-B, it was investigated whether or not the compound of Example 2 could affect normal liver tissues.

[8] = system: SNU-354 xenografted tumor; test: TUNEL assay and cleaved caspase-3 immunohistochemistry of xenografted tumor; assay type: in vivo, nude mice; settings: 4 and 20 mg/kg vs control; FIG. 23-A
Method: as §2

[9] = system: p-Nucleolin (Cdk1); test: Western blotting of p-nucleolin (Cdk1) in SNU-354 cells; assay type: cell-based, human
Method: SNU-354 cells were cultured in RPMI 1640 (Invitrogen, CA, USA) supplemented with 10% FBS (Invitrogen) and antibiotics/antimycotics (Invitrogen) in a 5% CO2 incubator at 37° C. […]
as §1

SMILES | PARP cleavage, time from the treatment after which it was caused [1] [h] | caspase-3 activity relative to the control ([2]; 1.0 uM and up) | Cdk7 activity ([3]; 10 nM) [%] | Cdk7 activity ([3]; 100 nM) [%] | Cdk7 activity ([3]; 1000 nM) [%] | Cdk9 activity ([4]; 0.1 nM) [%] | Cdk9 activity ([4]; 0.5 nM) [%] | Cdk9 activity ([4]; 1 nM) [%] | Cdk9 activity ([4]; 5 nM) [%] | Cdk9 activity ([4]; 10 nM) [%] | Cdk9 activity ([4]; 50 nM) [%] | caspase-3 activity relative to the control ([2]; 0.5 uM and up) [times] | sub G1 ratio change [5] | Mcl-1, Survivin and XIAP protein level [6] | apoptosis in normal liver tissues (TUNEL, caspase-3 immunohistochemistry) [7] | TUNEL positive spots and caspase-3 positive spots in xenografted tumor [8] | Phosphorylation (%) p-Nucleolin (Cdk1) ([9]; treatment time 6 (hours)) [%] | Phosphorylation (%) p-Nucleolin (Cdk1) ([9]; treatment time 12 (hours)) [%] | Phosphorylation (%) p-Nucleolin (Cdk1) ([9]; treatment time 18 (hours)) [%] | Phosphorylation (%) p-Nucleolin (Cdk1) ([9]; treatment time 24 (hours)) [%]
NC(=O)c1c(Br)nc2n([C@H]3O[C@@H](CO)[C@H](O)[C@H]3O)cnc(N)c1-2 [Example 1, 4-amino-6-bromo-1-((2S,3R,4R,5S)-3,4-dihydroxy-5-(hydroxymethyl)-tetrahydrofuran-2-yl)-1H-pyrrolo[2,3-d]pyrimidine-5-carboxamide] | 12 | three times as high as that of the control | 41.8 | 10.8 | 5.8 | 90.4 | 87.0 | 46.1 | 1.9 | 1.3 | 0.2 |  |  |  |  |  |  |  |  | 
CC(C)C(=O)OC[C@@H]1O[C@H](n2cnc(N)c3c(C(N)=O)c(Br)nc2-3)[C@H](O)[C@H]1O [Example 2, ((2S,3R,4R,5S)-5-(4-amino-6-bromo-5-carbamoyl-1H-pyrrolo[2,3-d]pyrimidin-1-yl)-3,4-dihydroxy-tetrahydrofuran-2-yl)methyl isobutyrate] | 6 |  | 92.2 | 91.1 | 6.5 | 81.5 | 27.3 | 11 | 2.2 | 1.1 | 0.7 | 7 | 5.9 | down-regulated | apoptosis was not observed at all | observed more | 96.9 | 11.7 | 3.1 | 3.0
